From the supplement of paper PMC10307832

Legend:
Assay in all cases: relative viability (nuclei count vs DMSO), 5 days (fraction); higher = more cells survive
[1] = compound: C1=CC(=CC=C1NC(=S)NNC2=C(C=C(C=C2[N+](=O)[O-])C(F)(F)F)[N+](=O)[O-])F [Kobe2602] + Cc1nc(Nc2ncc(C(=O)Nc3c(C)cccc3Cl)s2)cc(N2CCN(CCO)CC2)n1 [Dasatinib] (partner 0.075 µM)
Procedure, shortened: (§1)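 Lung cancer cell lines were seeded in 1536-well plates and dosed by pin tool the next day, with either a single drug or a fixed anchor-drug dose combined with five library-drug doses (not always all listed) spaced in √10 steps. Five days later, one step fixed the cells and stained their nuclei (final 0.05% Triton X-100, 1% formaldehyde, 1 ug/ml Hoechst), and nuclei were counted on 4× images. Relative viability is the nuclei count in treated wells divided by the count in vehicle wells, and each value is the median of duplicate plates.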

[2] = compound: COc1cc2nccc(Oc3ccc(NC(=O)C4(C(=O)Nc5ccc(F)cc5)CC4)cc3)c2cc1OC [Cabozantinib] + N=C(N)NC(=N)NCCc1ccccc1 [Phenformin] (partner 250 µM)
Procedure, shortened: as §1

[3] = compound: C1=CC(=CC=C1NC(=S)NNC2=C(C=C(C=C2[N+](=O)[O-])C(F)(F)F)[N+](=O)[O-])F [Kobe2602] + COc1cccc2cc(-c3nc([C@H]4CC[C@H](C(=O)O)CC4)n4ncnc(N)c34)[nH]c12 [OSI-027] (partner 0.5 µM)
Procedure, shortened: as §1

[4] = compound: COc1cc2nccc(Oc3ccc(NC(=O)C4(C(=O)Nc5ccc(F)cc5)CC4)cc3)c2cc1OC [Cabozantinib] + CC(=O)Nc1cccc(-n2c(=O)n(C3CC3)c(=O)c3c(Nc4ccc(I)cc4F)n(C)c(=O)c(C)c32)c1 [Trametinib] (partner 0.02 µM)
Procedure, shortened: as §1

Cell Line	relative viability ([1]; first compound 0.2 µM)	relative viability ([1]; first compound 0.6325 µM)	relative viability ([1]; first compound 2 µM)	relative viability ([1]; first compound 6.325 µM)	relative viability ([1]; first compound 20 µM)	relative viability ([2]; first compound 0.02 µM)	relative viability ([2]; first compound 0.06325 µM)	relative viability ([2]; first compound 0.2 µM)	relative viability ([2]; first compound 0.6325 µM)	relative viability ([2]; first compound 2 µM)	relative viability ([3]; first compound 0.2 µM)	relative viability ([3]; first compound 0.6325 µM)	relative viability ([3]; first compound 2 µM)	relative viability ([3]; first compound 6.325 µM)	relative viability ([3]; first compound 20 µM)	relative viability ([4]; first compound 0.02 µM)	relative viability ([4]; first compound 0.06325 µM)	relative viability ([4]; first compound 0.2 µM)	relative viability ([4]; first compound 0.6325 µM)	relative viability ([4]; first compound 2 µM)
NCI-H2023	0.532	0.583	0.547	0.484	0.394	0.444	0.463	0.337	0.26	0.236	0.394	0.387	0.346	0.345	0.278	0.497	0.707	0.445	0.381	0.293
NCI-H522	0.83	0.977	0.914	0.874	0.952	0.692	0.657	0.633	0.637	0.716	0.856	0.687	0.737	0.636	0.672	0.823	0.819	0.78	0.861	0.69
ChaGo-K-1	0.646	0.57	0.604	0.59	0.576	0.424	0.519	0.469	0.513	0.501	0.485	0.543	0.622	0.541	0.47	0.838	0.906	0.928	0.893	0.899
COR-L23	0.507	0.561	0.482	0.55	0.555	0.433	0.438	0.413	0.443	0.408	0.744	0.782	0.71	0.811	0.737	0.666	0.679	0.679	0.623	0.576
EMC-BAC-2	0.33	0.322	0.338	0.367	0.376	0.475	0.589	0.582	0.516	0.476	0.365	0.512	0.381	0.413	0.421	0.912	0.949	0.823	0.854	0.934
LCLC-103H	0.47	0.487	0.457	0.512	0.49	0.296	0.354	0.27	0.371	0.306	0.466	0.539	0.492	0.448	0.497	0.716	0.709	0.678	0.68	0.667
NCI-H1395	0.468	0.456	0.452	0.442	0.442	0.465	0.477	0.472	0.438	0.448	0.633	0.866	0.717	0.731	0.651	0.981	1.18	1.09	1.06	0.938
